Structures are written as SMILES.

Absorption maximum data for 46 compounds are collected here from the Deep4Chem optical property database.

This series can be described thus: solvent given as SMILES.

With `FC(F)(F)c1cc2n(n1)[B-]1(c3ccccc3Oc3ccccc31)[n+]1ccc3ccccc3c1-2`, the absorption maximum by setting is: (in C1CCCCC1) 375 nm; (in Cc1ccccc1) 378 nm; (in ClCCl) 372 nm.

As for `Cc1ccc(S(=O)(=O)/N=c2\oc3cccc4c5c(-c6ccccc6)oc6cccc(c(c2-c2ccccc2)c34)c65)cc1`, under “in ClC(Cl)Cl”, the absorption maximum is reported as 445 nm.

Consider `COc1ccc2nc3c(nc2c1)c(-c1ccccc1)nn3C`, for which the absorption maximum by setting is: (in C1CCCCC1) 431 nm; (in C1CCOC1) 435 nm; (in CC#N) 434 nm.

Compound `c1ccc(N(c2ccccc2)c2ccc(-c3cncs3)cc2)cc1` had an absorption maximum (in CO) of 346 nm.

Regarding `c1ccc(C2=C(c3ccccc3)c3cccc4c3c(cc3nc5cc(-c6ccccc6)c(-c6ccccc6)cc5nc34)O2)cc1`, the absorption maximum (in ClCCl) is on record as 507 nm.

Regarding `CCOC(=O)COc1ccc(/C=C/C2=[N+]3C(=Cc4c5ccccc5c(-c5[nH]c(C)cc5C)n4[B-]3(F)F)C(C)=C2)cc1`, the absorption maximum (in ClCCl) was 680 nm.

As for `COc1cc(C2=c3c(c4ccc(C(C)(C)C)cc4c4c(OC)c(OC)c(OC)cc34)=[N+]3C2=Nc2c(-c4cc(OC)c(OC)c(OC)c4)c4c5cc(OC)c(OC)c(OC)c5c5cc(C(C)(C)C)ccc5c4n2[B-]3(F)F)cc(OC)c1OC`, the absorption maximum (in Cc1ccccc1) turned out to be 808 nm.

`F[B-]1(F)OC(c2ccc(N3CCCC3)cc2)=Cc2cccc[n+]21`: the absorption maximum (in ClC(Cl)Cl) turned out to be 438 nm.

Turning to `CCCCC(CC)COc1ccc2nc(-c3ccc(-c4ccc(N(C)C)cc4)s3)sc2c1` (stereo not given), the absorption maximum (in ClCCl) is 402 nm.

Regarding `COc1ccc(-c2csc(/C(C#N)=C/c3ccc(C#N)cc3)n2)cc1`, the absorption maximum is, setting by setting: (in CC#N) 389 nm; (in CCO) 395 nm; (in CN(C)C=O) 395 nm; (in Cc1ccccc1) 400 nm; (in ClCCl) 396 nm.

For the compound `CCCCCCCCOc1ccc(C#Cc2ccc(C#Cc3ccc(OCCCCCCCC)c(OCCCCCCCC)c3)c3nc4c5ccccc5c5ccccc5c4nc23)cc1OCCCCCCCC`, the absorption maximum is recorded as 461 nm (in C1CCOC1), 461 nm (in Cc1ccccc1) and 461 nm (in ClCCl).

`Cc1c(COC(=O)c2ccccc2)n2c(OCC(=O)c3ccccc3)c(C)c(=O)n2c1=O` registered an absorption maximum (in CCO) of 381 nm.

Compound `FC(F)(F)c1ccccc1B1c2ccccc2Nc2ccccc21` had an absorption maximum (in ClCCl) of 386 nm.

Where the note is “in CC#N”, `CCOC(=O)c1c2c3c(ccc(C)c3c3cc4ccccc4cc13)N(C)C2=O` registered an absorption maximum of 404 nm.

Regarding `Cn1c(=O)cc(C(=O)c2ccccc2)c2sc(-c3ccc(C(F)(F)F)cc3)cc21`, the absorption maximum amounted to 388 nm (in CC#N) and 398 nm (in ClCCl).

In the case of `Cc1cc(C)c(B(c2ccc(-c3nc4c5ccccc5c5ccccc5c4[nH]3)cc2)c2c(C)cc(C)cc2C)c(C)c1`, the absorption maximum by setting is: (in C1CCOC1) 384 nm; (in CC(C)=O) 380 nm; (in CS(C)=O) 386 nm; (in Cc1ccccc1) 381 nm; (in ClCCl) 376 nm.

With `CCCCCCCc1ccc(C2=[N+]3C(=C4c5cc(OCC(CC)CC)c(-c6ccc(CCCCCCC)o6)n5[B-](F)(F)[n+]5c4n(c4cc(C(C)(C)C)ccc45)[B-]3(F)F)C=C2OCC(CC)CC)o1`, the absorption maximum (in C1CCOC1) was 816 nm and the absorption maximum (in ClCCl) was 826 nm.

Consider `CCCCCCCCCCCCN1C(=O)c2cccc3c(N(Cc4ccccn4)Cc4ccccn4)c4ccccc4c(c23)C1=O`, for which the absorption maximum is, setting by setting: (in C1CCOC1) 497 nm; (in CCCCCC) 480 nm; (in CCO) 488 nm; (in Cc1ccccc1) 492 nm; (in ClCCl) 500 nm.

In turn, `CC(C)[Si](C#Cc1c2cc3ccccc3cc2c(C#C[Si](C(C)C)(C(C)C)C(C)C)c2nc3c(nc12)C1c2ccccc2C3c2ccccc21)(C(C)C)C(C)C` returned an absorption maximum (in CCCCCC) of 542 nm.

With `c1cc2c3c(cccc3c1)NC(c1ccc3ccc4cccc5ccc1c3c45)N2`, the absorption maximum reads like this: (in CC#N) 341 nm; (in CO) 340 nm; (in CS(C)=O) 344 nm; (in Cc1ccccc1) 344 nm.

As for `c1ccc(-c2cc3ccccc3p2-c2ccccc2)cc1` (stereo not given), the absorption maximum (in C1CCOC1) is listed as 321 nm.

On to `C(#Cc1nccnc1C#Cc1ccccc1)c1ccccc1`, for which the absorption maximum (in CC#N) was determined as 315 nm.

As to `CC(=O)O[B-]1(OC(C)=O)OC(/C=C/c2ccccc2)=CC(/C=C/c2ccccc2)=[O+]1`, the absorption maximum was 422 nm (in C1CCOC1); 422 nm (in CC#N); 422 nm (in CC(C)=O); 428 nm (in CS(C)=O); 424 nm (in Cc1ccccc1); 426 nm (in ClC(Cl)Cl). Further, the absorption maximum (in ClCCl) came to 424 nm.

Take `COc1cccc(C2=CC3=C(c4c(C)cc(C)cc4C)c4cc(-c5cccc(OC)c5)c(-c5cccc(OC)c5)n4[B-](F)(F)[N+]3=C2c2cccc(OC)c2)c1`: the absorption maximum by setting is: (in C1CCCCC1) 596 nm; (in C1CCOC1) 592 nm; (in CC#N) 581 nm; (in Cc1ccccc1) 596 nm; (in ClCCl) 588 nm.

For the compound `Cc1ccc(-c2ccccc2)cc1`, the absorption maximum (in C1CCCCC1) worked out at 257.4 nm.

Consider `CC[n+]1c(-c2ccccc2)c2cc(N)ccc2c2ccc(-n3cccc3)cc21`, for which the absorption maximum (in O) stood at 454 nm.

Turning to `c1ccc2nc3cccc(-c4ccc(-n5c6ccccc6c6ccccc65)cc4)c3cc2c1`, the absorption maximum runs as follows: (in C1CCOC1) 359 nm; (in CC#N) 358 nm; (in CC(C)=O) 358 nm; (in CC(C)OC(C)C) 359 nm; (in CCCCCC) 359 nm; (in CCCCOCCCC) 359 nm. Besides, the absorption maximum is, setting by setting: (in CCOC(C)=O) 359 nm; (in CCOCC) 358 nm.

For `CN(C)c1ccc(C(=Cc2ccc(C=O)cc2)c2ccc(N(C)C)cc2)cc1`, under “in C1CCOC1”, the absorption maximum was 407 nm.

Turning to `CCCCCCN1C(=O)c2cccc3c(-c4scc5c4OCCO5)ccc(c23)C1=O`, where the note is “in ClC(Cl)Cl”, the absorption maximum turned out to be 390 nm.

On to `N#C/C(=C\c1ccncc1)c1nc(-c2ccccc2)cs1`, for which the absorption maximum reads like this: (in CC#N) 361 nm; (in CCO) 370 nm; (in CN(C)C=O) 368 nm; (in CS(C)=O) 371 nm; (in Cc1ccccc1) 372 nm; (in ClCCl) 418 nm.

In the case of `CC(C)(C)c1ccc2c(c1)[nH]c1c3[nH]c4cc(C(C)(C)C)ccc4c3c3nsnc3c21`, the absorption maximum by setting is: (in CN(C)C=O) 412 nm; (in Cc1ccccc1) 406 nm; (in ClCCl) 411 nm.

Take `C[n+]1ccc(/C=C/c2ccc(N(c3ccccc3)c3ccc(/C=C/c4cc[n+](C)cn4)cc3)cc2)nc1`: the absorption maximum is, setting by setting: (in CS(C)=O) 500 nm; (in O) 525 nm; (in OCC(O)CO) 560 nm.

With `N=C(N)N`, the absorption maximum (in O) is 265 nm.

For the setting “in ClCCl”, `O=C1c2ccccc2-c2nc3ccccc3n21` had an absorption maximum of 340 nm.

In turn, `CN(CC(O)c1cccc(O)c1)c1ccc([N+](=O)[O-])c(C2CC(c3cccc4ccccc34)=NN2c2ccccc2)c1` (stereo not given) gave an absorption maximum (in C1CCCCC1) of 400 nm; an absorption maximum (in C1CCOC1) of 411 nm; an absorption maximum (in C1COCCO1) of 396 nm; an absorption maximum (in CC#N) of 402 nm; an absorption maximum (in CC(C)O) of 412 nm; an absorption maximum (in CCOC(C)=O) of 418 nm. Also, the absorption maximum is, setting by setting: (in CCOCC) 405 nm; (in CO) 409 nm; (in Cc1ccccc1) 414 nm; (in ClC(Cl)Cl) 369 nm; (in O) 406 nm.

On to `CCn1c2ccccc2c2cc(-c3cc(-c4ccc5c(c4)c4ccccc4n5CC)nc(N4CCCCC4)n3)ccc21`, for which the absorption maximum is 367 nm (in C1CCOC1); 368 nm (in CCOC(C)=O); 370 nm (in CN(C)C=O); 369 nm (in Cc1ccccc1); 371 nm (in ClCCl).

For `CC1(C)c2cc(C#N)ccc2-c2ccc(N3c4ccccc4Oc4ccccc43)cc21`, the absorption maximum worked out at 395 nm (in C1CCCCC1); 380 nm (in C1CCOC1); 375 nm (in CC#N); 390 nm (in Cc1ccccc1); 389 nm (in ClC(Cl)Cl).

Under “in Cc1ccccc1”, `O=C(c1ccccc1)c1cc2ccc1CCc1ccc(c(-c3ccc(N(c4ccccc4)c4ccccc4)cc3)c1)CC2` displayed an absorption maximum of 312 nm.

For `COc1ccc2c(c1)c(=O)c1ccccc1n2CCCCCC(=O)O`, the absorption maximum (in O) is 422 nm.

`F[B-]1(F)n2c(ccc2-c2nc3ccccc3s2)C(c2ccccc2)=C2C=CC(c3nc4ccccc4s3)=[N+]21`: the absorption maximum (in ClC(Cl)Cl) is 623 nm.

Take `O=c1c2cc(S(=O)(=O)O)ccc2[nH]c2ccc(S(=O)(=O)O)cc12`: the absorption maximum reads like this: (in CS(C)=O) 399 nm; (in O) 396 nm.

Under “in O”, `CC[n+]1c(-c2ccccc2)c2cc(NC(N)=[NH2+])ccc2c2ccc(NC(N)=[NH2+])cc21` showed an absorption maximum of 397 nm.

As to `CC(=O)O[B-]1(OC(C)=O)OC(/C=C/c2ccc(C)cc2)=CC(/C=C/c2ccc(C)cc2)=[O+]1`, the absorption maximum is 434 nm (in C1CCOC1); 434 nm (in CC#N); 434 nm (in CC(C)=O); 442 nm (in CS(C)=O); 436 nm (in Cc1ccccc1); 440 nm (in ClC(Cl)Cl). Further, the absorption maximum (in ClCCl) came to 440 nm.

Take `CC(C)(C)c1ccc2oc3nc4oc5ccc(-n6c7ccccc7c(=O)c7ccccc76)cc5c4cc3c2c1`: the absorption maximum (in ClC(Cl)Cl) amounted to 396 nm.

Compound `CCc1ccc(-n2c3ccccc3c3cc4c(cc32)c2ccccc2n4-c2ccc(CC)cc2)cc1` had an absorption maximum (in ClC(Cl)Cl) of 409 nm.

`Cc1c(COC(=O)Cc2c[nH]c3ccccc23)n2c(OCC(=O)Cc3c[nH]c4ccccc34)c(C)c(=O)n2c1=O`: the absorption maximum (in CCO) was 382 nm.
